target: T1, human TLR7 (Homo sapiens, UniProt Q9NYK1); test: HEK293-Blue-hTLR-7 cells assay; type: cell-based; conditions: HEK293-Blue-hTLR7 cells, R848 stimulation, 20 hrs, SEAP reporter; read-out: HEK/hTLR7 IC50
T1 construct: host or cells: HEK293 (HEK-Blue hTLR7)
T1 sequence (Q9NYK1 27-1049): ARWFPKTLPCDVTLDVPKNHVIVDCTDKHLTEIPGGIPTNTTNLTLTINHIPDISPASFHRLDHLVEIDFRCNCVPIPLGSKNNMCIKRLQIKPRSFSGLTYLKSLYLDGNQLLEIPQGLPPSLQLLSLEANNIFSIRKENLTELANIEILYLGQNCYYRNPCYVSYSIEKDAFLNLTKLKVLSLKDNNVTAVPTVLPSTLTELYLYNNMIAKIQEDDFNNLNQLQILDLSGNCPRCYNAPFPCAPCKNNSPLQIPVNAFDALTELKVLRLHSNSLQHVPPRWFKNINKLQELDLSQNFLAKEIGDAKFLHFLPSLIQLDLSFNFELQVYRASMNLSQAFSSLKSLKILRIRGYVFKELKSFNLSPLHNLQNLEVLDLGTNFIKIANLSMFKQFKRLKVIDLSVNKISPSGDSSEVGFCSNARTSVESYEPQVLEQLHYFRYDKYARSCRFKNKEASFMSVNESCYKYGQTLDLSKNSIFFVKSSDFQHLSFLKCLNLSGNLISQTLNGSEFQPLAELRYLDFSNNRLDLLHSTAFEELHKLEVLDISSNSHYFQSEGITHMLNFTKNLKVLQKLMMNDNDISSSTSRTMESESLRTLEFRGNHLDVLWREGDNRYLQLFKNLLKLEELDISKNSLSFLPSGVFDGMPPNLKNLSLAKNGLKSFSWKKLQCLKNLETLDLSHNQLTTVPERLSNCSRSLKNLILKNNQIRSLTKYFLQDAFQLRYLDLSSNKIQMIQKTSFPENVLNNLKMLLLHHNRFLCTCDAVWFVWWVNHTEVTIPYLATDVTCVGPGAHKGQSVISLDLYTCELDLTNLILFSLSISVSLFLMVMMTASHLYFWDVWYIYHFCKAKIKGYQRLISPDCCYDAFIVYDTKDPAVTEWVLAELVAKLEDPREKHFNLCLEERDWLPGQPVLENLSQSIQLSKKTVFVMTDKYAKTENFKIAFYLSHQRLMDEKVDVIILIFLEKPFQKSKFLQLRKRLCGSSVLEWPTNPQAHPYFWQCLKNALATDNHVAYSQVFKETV
From the text: A stable HEK293-Blue-hTLR-7 cell line was purchased from InvivoGen (Cat. #: hkb-htlr7, San Diego, California, USA). These cells were originally designed for studying the stimulation of human TLR7 by monitoring the activation of NF-κB. A SEAP (secreted embryonic alkaline phosphatase) reporter gene was placed under the control of the IFN-β minimal promoter fused to five NF-κB and AP-1-binding sites. The SEAP was induced by activating NF-κB and AP-1 via stimulating HEK-Blue hTLR7 cells with TLR7 ligands. Therefore the reporter expression was declined by TLR7 antagonist under the stimulation of a ligand, such as R848 (Resiquimod), for incubation of 20 hrs. The cell culture supernatant SEAP reporter activity was determined using QUANTI-Blue™ kit (Cat. #: rep-qb1, Invivogen, San Diego, Ca, USA) at a wavelength of 640 nm, a detection medium that turns purple or blue in the presence of alkaline phosphatase.
HEK293-Blue-hTLR7 cells were incubated at a density of 250,000˜450,000 cells/mL in a volume of 170 μL in a 96-well plate in Dulbecco's Modified Eagle's medium (DMEM) containing 4.5 g/L glucose, 50 U/mL penicillin, […], […], 2 mM L-glutamine, 10% (v/v) heat-inactivated fetal bovine serum with addition of 20 μL test compound in a serial dilution in the presence of final DMSO at 1% and 10 μL of 20 uM R848 in above DMEM, perform incubation under 37° C. in a CO2 incubator for 20 hrs. Then 20 μL of the supernatant from each well was incubated with 180 μL Quanti-blue substrate solution at 37° C. for 2 hrs and the absorbance was read at 620˜655 nm using a spectrophotometer. The signaling pathway that TLR7 activation leads to downstream NF-κB activation has been widely accepted, and therefore similar reporter assay was modified for evaluating TLR7 antagonist.

SMILES	IC50
C[C@@H]1CN(c2ccc(C#N)c3ncccc23)C[C@@H]2CC(c3ccc(C[C@@H]4CNCCO4)cc3)CCN21 (stereo in doubt) [Example 25, 5-[(4R,8R,9aS)-4-methyl-8-[4-[[(2R)-morpholin-2-yl]methyl]phenyl]-1,3,4,6,7,8,9,9a-octahydropyrido[1,2-a]pyrazin-2-yl]quinoline-8-carbonitrile]	8 nM
C[C@@H]1CN(c2ccc(C#N)c3ncccc23)C[C@@H]2C[C@H](c3ccc(N4CCNCC4)nc3)CCN21 [Example 4, 5-[(4R,8R,9aS)-4-methyl-8-(6-piperazin-1-yl-3-pyridyl)-1,3,4,6,7,8,9,9a-octahydropyrido[1,2-a]pyrazin-2-yl]quinoline-8-carbonitrile]	6 nM
C[C@@H]1CN(c2ccc(C#N)c3ncccc23)C[C@@H]2C[C@H](c3ccc(N4CC(N)C4)nc3)CCN21 [Example 7, 5-[(4R,8R,9aS)-8-[6-(3-aminoazetidin-1-yl)-3-pyridyl]-4-methyl-1,3,4,6,7,8,9,9a-octahydropyrido[1,2-a]pyrazin-2-yl]quinoline-8-carbonitrile]	32 nM
C[C@@H]1CN(c2ccc(C#N)c3ncccc23)C[C@H]2C[C@H](c3ccc(N4CCNCC4)nc3)CCN21 [Example 15, 5-[(4R,8R,9aR)-4-methyl-8-(6-piperazin-1-yl-3-pyridyl)-1,3,4,6,7,8,9,9a-octahydropyrido[1,2-a]pyrazin-2-yl]quinoline-8-carbonitrile]	24 nM
C[C@@H]1CN(c2ccc(C#N)c3ncccc23)C[C@@H]2C[C@@H](NCc3ccc(N4CCNCC4)cc3)CCN21 [Example 17, 5-[(4R,8S,9aS)-4-methyl-8-[(4-piperazin-1-ylphenyl)methylamino]-1,3,4,6,7,8,9,9a-octahydropyrido[1,2-a]pyrazin-2-yl]quinoline-8-carbonitrile]	35 nM
C[C@@H]1CN(c2ccc(C#N)c3ncccc23)C[C@@H]2C[C@@H](Oc3cnc(N4CCNCC4)nc3)CCN21 [Example 18, 5-[(4R,8S,9aS)-4-methyl-8-(2-piperazin-1-ylpyrimidin-5-yl)oxy-1,3,4,6,7,8,9,9a-octahydropyrido[1,2-a]pyrazin-2-yl]quinoline-8-carbonitrile]	21 nM
C[C@@H]1CN(c2ccc(C#N)c3ncccc23)C[C@@H]2C[C@H](Nc3ccc([C@H]4CNCCO4)cc3)CCN21 [Example 20, 5-[(4R,8R,9aS)-4-methyl-8-[4-[(2S)-morpholin-2-yl]anilino]-1,3,4,6,7,8,9,9a-octahydropyrido[1,2-a]pyrazin-2-yl]quinoline-8-carbonitrile]	13 nM
[2H]c1ccc2c(N3C[C@@H]4C[C@H](Nc5ccc(C[C@@H]6CNCCO6)cc5)CCN4[C@H](C)C3)ccc(C#N)c2n1 [Example 22, 5-[(4R,8R,9aS)-4-methyl-8-[4-[[(2R)-morpholin-2-yl]methyl]anilino]-1,3,4,6,7,8,9,9a-octahydropyrido[1,2-a]pyrazin-2-yl]-2-deuterio-quinoline-8-carbonitrile]	44 nM
C[C@@H]1CN(c2ccc(C#N)c3ncccc23)C[C@@H]2C[C@@H](Oc3cncc(N4CCNCC4)c3)CCN21 [Example 29, 5-[(4R,8S,9aS)-4-methyl-8-[(5-piperazin-1-yl-3-pyridyl)oxy]-1,3,4,6,7,8,9,9a-octahydropyrido[1,2-a]pyrazin-2-yl]quinoline-8-carbonitrile]	49 nM
CO[C@@H]1CN(c2ccc(C3CN([C@@H]4CCN5[C@@H](C4)CN(c4ccc(C#N)c6ncccc46)C[C@H]5C)C3)cc2)C[C@H]1N [Example 30, 5-[(4R,8R,9aS)-8-[3-[4-[(3R,4R)-3-amino-4-methoxy-pyrrolidin-1-yl]phenyl]azetidin-1-yl]-4-methyl-1,3,4,6,7,8,9,9a-octahydropyrido[1,2-a]pyrazin-2-yl]quinoline-8-carbonitrile]	41 nM
CO[C@H]1CN(c2ccc(C3CN([C@@H]4CCN5[C@@H](C4)CN(c4ccc(C#N)c6ncccc46)C[C@H]5C)C3)cc2)C[C@H]1N [Example 32, 5-[(4R,8R,9aS)-8-[3-[4-[(3R,4S)-3-amino-4-methoxy-pyrrolidin-1-yl]phenyl]azetidin-1-yl]-4-methyl-1,3,4,6,7,8,9,9a-octahydropyrido[1,2-a]pyrazin-2-yl]quinoline-8-carbonitrile]	48 nM

The remaining lines, values ahead:

IC50	SMILES
33 nM	C[C@@H]1CN(c2ccc(C#N)c3ncccc23)C[C@@H]2C[C@H](NCc3ccc(N4CCNCC4)cc3)CCN21 [Example 1, 5-[(4R,8R,9aS)-4-methyl-8-[(4-piperazin-1-ylphenyl)methylamino]-1,3,4,6,7,8,9,9a-octahydropyrido[1,2-a]pyrazin-2-yl]quinoline-8-carbonitrile]
10 nM	C[C@@H]1CN(c2ccc(C#N)c3ncccc23)CC2C[C@H](c3ccc(N4CCNCC4)cc3)CCN21 (stereo partly drawn) [Example 3, 5-[(4R,8R)-4-methyl-8-(4-piperazin-1-ylphenyl)-1,3,4,6,7,8,9,9a-octahydropyrido[1,2-a]pyrazin-2-yl]quinoline-8-carbonitrile]
21 nM	CO[C@@H]1CN(c2ccc([C@@H]3CCN4[C@@H](C3)CN(c3ccc(C#N)c5ncccc35)C[C@H]4C)cn2)C[C@@H]1N [Example 13, 5-[(4R,8R,9aS)-8-[6-[(3S,4R)-3-amino-4-methoxy-pyrrolidin-1-yl]-3-pyridyl]-4-methyl-1,3,4,6,7,8,9,9a-octahydropyrido[1,2-a]pyrazin-2-yl]quinoline-8-carbonitrile]
35 nM	C[C@@H]1CN(c2ccc(C#N)c3ncccc23)C[C@@H]2C[C@@H](Oc3ccc(N4CCNCC4)nc3)CCN21 [Example 16, 5-[(4R,8S,9aS)-4-methyl-8-[(6-piperazin-1-yl-3-pyridyl)oxy]-1,3,4,6,7,8,9,9a-octahydropyrido[1,2-a]pyrazin-2-yl]quinoline-8-carbonitrile]
21 nM	C[C@@H]1CN(c2ccc(C#N)c3ncccc23)C[C@@H]2C[C@H](c3ccc(N4CCOC[C@@H](N)C4)nc3)CCN21 [Example 23, 5-[(4R,8R,9aS)-8[6-[(6S)-6-amino-1,4-oxazepan-4-yl]-3-pyridyl]-4-methyl-1,3,4,6,7,8,9,9a-octahydropyrido[1,2-a]pyrazin-2-yl]quinoline-8-carbonitrile]
4 nM	C[C@@H]1CN(c2ccc(C#N)c3ncccc23)C[C@@H]2C[C@@H](c3ccc(C4CNCCO4)cc3)CCN21 (stereo partly drawn) [Example 24, 5-[(4R,8S,9aS)-4-methyl-8-(4-morpholin-2-ylphenyl)-1,3,4,6,7,8,9,9a-octahydropyrido[1,2-a]pyrazin-2-yl]quinoline-8-carbonitrile]
30 nM	C[C@@H]1CN(c2ccc(C#N)c3ncccc23)C[C@@H]2C[C@@H](c3ccc(CC4CNCCO4)cc3)CCN21 (stereo partly drawn) [Example 26, 5-[(4R,8S,9aS)-4-methyl-8-[4-(morpholin-2-ylmethyl)phenyl]-1,3,4,6,7,8,9,9a-octahydropyrido[1,2-a]pyrazin-2-yl]quinoline-8-carbonitrile]
47 nM	CO[C@H]1CN(c2ccc(O[C@H]3CCN4[C@@H](C3)CN(c3ccc(C#N)c5ncccc35)C[C@H]4C)cn2)C[C@H]1N [Example 28, 5-[(4R,8S,9aS)-8-[[6-[(3R,4S)-3-amino-4-methoxy-pyrrolidin-1-yl]-3-pyridyl]oxy]-4-methyl-1,3,4,6,7,8,9,9a-octahydropyrido[1,2-a]pyrazin-2-yl]quinoline-8-carbonitrile]

Source: patent US12421229B2, “Hydropyrido[1,2-α]pyrazine compounds for the treatment of autoimmune disease” (Hoffmann-La Roche Inc., priority 2019, dated 2025)
